Stimulated oxygen consumption data for 2 compounds are collected here from US6555578B2, “Thyromimetic antiobesity agents” (Pfizer Inc., priority 1999, dated 2003).

This test deals with whole body oxygen consumption. Briefly: In vivo screen: whole body (resting) oxygen consumption in fatty Zucker rats by indirect calorimetry. Particulars: male fatty Zucker rats, oral gavage once daily for 6 days, measured the day after the last dose. How it is done:
This in vivo screen is designed to evaluate the efficacy and cardiac effects of compounds that are tissue selective thyroid hormone agonists. The efficacy endpoints measured are whole body oxygen consumption and the activity of liver mitochrondrial alpha-glycerophosphate dehydrogenase (mGPDH). The cardiac endpoints that are measured are heart weight and heart mGPDH activity. The protocol involves dosing fatty Zucker rats for 6 days, then measuring oxygen consumption and harvesting of tissues for preparation of mitochondria and assaying of enzyme activity. […]
Oxygen consumption is measured the day after the last dose of compound is given using an open circuit, indirect calorimeter (Oxymax, Columbus Instruments, 950 North Hague Ave., Columbus, Ohio 43204). […] Rats are removed from their home cages, their body weights are recorded and they are placed in sealed chambers (43×43×10 cm) of the calorimeter and the chambers are placed in activity monitors. […] The activity monitors have 15 infrared light beams spaced one inch apart on each axis; ambulatory activity is recorded when two consecutive beams are broken and the results are recorded as counts. Oxygen consumption and ambulatory activity are measured every 10 minutes for 5-6.5 hours. […]

For the setting “dose of 1.0 mg/kg body weight”, `Cc1cc(NC(=O)C(=O)O)cc(C)c1Oc1ccc(O)c(C(C)C)c1` [CGS-23425, N-[3,5-dimethyl-4-(4′-hydroxy-3′-isopropylphenoxy)-phenyl]-oxamic acid] displayed a stimulated oxygen consumption of 27%. On to `CCOC(=O)C(=O)Nc1cc(C)c(Oc2ccc(O)c(C(O)c3ccc(F)cc3)c2)c(C)c1` (centres unmarked) [CGS-26214, ethyl N-[4-[3′-[(4-fluorophenyl)hydroxymethyl]-4′-hydroxyphenoxy]-3,5-dimethylphenyl]oxamate], for which the stimulated oxygen consumption (doses of 0.005 to 0.3 mg/kg body weight) is 14 to 31%.
